From patent publication US20200077655A1, “Use of an Acyclic Picolinamide Compound as a Fungicide for Control of Phytopathogenic Fungi in Orchard, Vineyard and Plantation Crops” (Dow AgroSciences LLC, priority 2017, published 2020)

Experiments:
[1] = test system: Rhizopus stolonifer (RIZPST); experiment: Field microplot assessment on Rhizopus rot on apricots; assay type: in vivo; settings: field grown apricots
From the text: A field trial assessing the utility of Compound I on rot diseases of stone fruits was done using apricots in a microplot method, part of an experimental trial designed as a randomized complete block with four replications. In a microplot method, two mature fruits on a single branch or cluster of fruits were selected for each replication (for a total of 10 replications) instead of using an entire replication. Colored flagging identified treatments. Fungicidal treatments containing Compound I, applied in a 5% EC formulation and tank mixed with an adjuvant (Trycol, 50% w/w at 0.2% v/v), were sprayed on apricots (PRNAR) at rates of 50, 100, and 150 grams of active ingredient per hectare (g ai/ha). The applications to the selected mature apricots were done at 7 days before harvest using a hand held manual spray bottle at a water volume of 500 L/ha. One day after application, a ZipLoc plastic bag was placed over the fruit or fruit cluster and an inoculation mix of MONIFC (Rhizopus was from natural population present in the orchard) was sprayed inside covering the fruits. The plastic bags were removed after 24 hours. At harvest, the fruits were collected in the field and placed in plastic Tupperware containers. 150 mL of de-ionized water was poured in the bottom of the Tupperware containers and the fruits were sprayed with a light mist of water. The containers were brought to the lab, enclosed in a large trash bag to keep the humidity high, and incubated on a lab bench at approximately 23° C. Visual disease incidence was assessed during the trial at 9 and 16 days after application. Area under the disease progress curve (AUDPC) was calculated for each plot using the sets of recorded incidence data. Relative AUDPC (% control based on AUDPC) was calculated as percent of the nontreated control.

[2] = test system: Erysiphe necator (UNCINE); experiment: Field assessment of grape powdery mildew; assay type: in vivo; settings: grapes, 5% EC + Trycol
From the text: A fungicidal treatment containing Compound I, applied in a 5% EC formulation and tank mixed with an adjuvant (Trycol, 50% w/w at 0.2% v/v), was sprayed on the plant canopy of grape plants (VITVI, Chardonnay variety) at rates of 50, 100 and 150 grams of active ingredient per hectare (g ai/ha). The trial was based on six foliar applications during the growing season at approximately 10 day intervals with natural infections in open field conditions. The treatment was part of an experimental trial designed as a randomized complete block with four replications and a plot of approximately 3.0×7.0 m. Formulations of compound I were applied at water volume of 1000 L/ha, using a self-propelled multi-plot track sprayer (TRACTAIR, Andreoli Engineering) and pressurized at 400 kPa.
Disease evaluations were recorded as percent of leaves and fruit with disease (incidence) and percent diseased area on leaves and fruit (severity, using 100 random leaves and fruit bunches. Grape powdery mildew was assessed three times, with the initial assessment at 2 days after the fourth application. Area under the disease progress curve (AUDPC) was calculated for each plot using the sets of recorded severity data. Relative AUDPC (% control based on AUDPC) was calculated as percent of the nontreated control. Results are given in Table 8.

COc1ccnc(C(=O)N[C@@H](C)C(=O)O[C@@H](C)C(c2ccc(F)cc2)c2ccc(F)cc2)c1OC(C)=O [Compound I, (S)-1,1-bis(4-fluorophenyl)propan-2-yl (3-acetoxy-4-methoxypicolinoyl)-L-alaninate]
Percent control (AUDPC) from fruit incidence, RIZPST ([1]; 50 g ai/ha): B (51-75)
Percent control (AUDPC) from fruit incidence, RIZPST ([1]; 100 g ai/ha): C (26-50)
Percent control (AUDPC) from fruit incidence, RIZPST ([1]; 150 g ai/ha): C (26-50)
Percent control (AUDPC) from bunch infection assessments ([2]; 50 g ai/ha): B (51-75)
Percent control (AUDPC) from bunch infection assessments ([2]; 100 g ai/ha): B (51-75)
Percent control (AUDPC) from bunch infection assessments ([2]; 150 g ai/ha): A (76-100)
Percent control (AUDPC) from leaf infection assessments ([2]; 50 g ai/ha): A (76-100)
Percent control (AUDPC) from leaf infection assessments ([2]; 100 g ai/ha): A (76-100)
Percent control (AUDPC) from leaf infection assessments ([2]; 150 g ai/ha): A (76-100)
